Data set [1] relates to Human Epidermoid Tumors (A431). It is filed as in vivo, human tumor in BALB/c nu/nu female mice. Conditions: 100 mg/kg, PO.
For data set [2], the system named is KDR.
Method: (§1) Inhibition of Binding of VEGF 165 to KDR & Flt-1 Receptors as Measured by SPA Assay
(§2) Preparation of conditioned media containing the KDR-Fc soluble VEGF receptor.:
(§3) Human 293KDR2 cells, which secrete a soluble KDR-Fc fusion protein, were grown in Dulbecco's Modified Eagle Medium supplemented with 10% fetal calf serum, 2 mM glutamine, 10 units/ml penicillin G sulfate, 10 μg/ml streptomycin sulfate and 175 μg/ml geneticin (G418) sulfate. Cells were plated at a density of 10^6 cells/100 mm dish and incubated at 37° C. in a humidified atmosphere containing 95% air and 5% CO2. After 10 days, conditioned medium was collected and centrifuged at 15,000 rpm for 15 min to remove dead cells. A total of 0.1 volume of 1.15% gelatin and 0.02 volume of 1M HEPES buffer (pH 8) was added. Leupeptin and pepstatin A were added to 1 μg/ml each.
(§4) Preparation of ^125 I-labelled VEGF ligand:
(§5) Recombinant human ^125 T-labelled VEGF 165 was purchased from Amersham (3,800 cpm/fmol). ^125,-labelled VEGF was diluted in DMEM supplemented with gelatin (0.15%) and HEPES buffer (20 mM) to a final concentration of 40,000 cpm/25 μl.
Preparation of SPA beads:
(§6) SPA PVT antibody-binding beads were purchased from Amersham. Each bottle of SPA beads (500 mg) was reconstituted in 25 ml of DMEM supplemented with gelatin (0.15%) and HEPES buffer (20 mM). The bottle contents were well mixed (15 min with a stir bar at room temperature).
(§7) SPA assays were performed in flat-bottom polystyrene 96 well microtitre plates.
(a) Pipette 50 μl of SPA beads to well.
(§8) (b) Pipette 25 μl of conditioned medium to well.
(§9) (d) Pipette 25 μl of ^125 J-VEGF 165 to well.
(§10) The appropriate control wells were set up to measure non-specific binding, solvent effect, etc. The assays were run in duplicate or triplicate wells. Plates were sealed and incubate at room temperature without shaking for 5 to 20 hours. Plates were then counted in a Packard TopCount microtitre plate liquid scintillation counter.
(§11) A typical assay gave 3,000 to 6,000 cpm bound. Background binding (measured in the presence of 100-fold molar excess of unlabelled VEGF 165) was typically 200 to 300 cpm bound. Compounds were tested at 30, 10, 3, 1, 0.3 and 0.1 μg/ml in DMSO. […] Half maximal binding was determined by the following equation:
(§12) s=maximal cpm bound in the absence of compound.
(§13) The IC50 values were determined graphically by the following procedure:
(§14) A graph was drawn plotting compound concentration (x-axis) versus cpm bound (y-axis).
(§15) The half maximal binding was calculated using the equation above.
(§16) A horizontal line (LINE A) was drawn which intersects the y-axis at the half maximal binding value.
(§17) A vertical line (LINE B) was drawn through the point where LINE A intersects the inhibition curve.
(§18) The point where LINE B intersects the x-axis was extrapolated from the graph to give the IC50 value.
Data set [3] has as its system corneal neovascularization. As to the kind of experiment: Corneal Neovascularization Model. It is filed as in vivo, mice. Conditions: 100 mg/kg, PO, days 1-10. As to the method: Corneal Neovascularization Model
The sustained release preparations of angiogenic agents (ELVAX pellet) were prepared by solvent casting. […] The solvent was then evaporated, leaving the angiogenic agent in the polymeric matrix
Mice were anesthetized using a 1-1.5 ml/kg solution containing a mixture of 70% ketamine hydrochloride (100 mg/ml) and 30% xylazine (20 mg/ml). Using sterile surgical technique, an ELVAX pellet containing either basic FGF (100 ng) or VEGF (400 ng) was implanted into a previously dissected intrastromal corneal pocket 0.5 mm from the corneoscleral limbus. Following implantation the implantation site margins were reapposed and the eyes were treated with topical antibiotic ointment (bacitracin/neomycin/polymixin). On various days (between postoperative days 4 and 18) the extent of neovascularization was measured.
Neovascularization was monitored by measurements of new vessel growth within the previously avascular cornea. This parameter was obtained by measuring with calipers under microscopic magnification the length of the base of the neovascular bed at the limbus. The area of neovascularization,which is typically triangular, was calculated by dividing the product of the length of the vessel and the base length by two. Data was statistically analyzed via Student-t-test of Log Relative Reduction of Neovascularization. A p-value (p≤0.05) indicates a statistically significant reduction in neovascularization of Treated Group, compared to Placebo Control.

The subject of data set [4] is Human Epidermoid Tumors (A431). It is filed as in vivo, human tumor in BALB/c nu/nu female mice. How it is done:
In Vivo Inhibition of Growth of Human Epidermoid Tumors (A431)
In vivo testing was performed using BALB/c nu/nu female mice (Charles River, Wilmington, Mass.). The human epidermoid carcinoma cells A-431 (American Type Culture Collection, Rockville, Md. # CRL-155) were grown in vitro and 5×10^6 cells were injected subcutaneously (SC) into mice. When tumors attained a mass of between 100 and 150 mg, the mice were randomized into treatment groups (Day Zero). Mice were treated either intraperitoneally (IP) or orally (PO) once a day on days 1 through 20 post staging with doses of either 100 or 50 mg/kg/dose in 0.2% Klucel. Tumor mass was determined every 7 days [(length×width^2)/2] for up to 42 days post staging. Relative tumor growth (mean tumor mass on day 7, 14, 21, 28, 35 and 42 divided by the mean tumor mass on day zero) was determined for each treatment group. The %T/C (Tumor/Control) was determined by dividing the relative tumor growth of the treated group by the relative tumor growth of the placebo group and multiplying by 100. Data was statistically analyzed via Student-t-test of Log Relative Tumor Growth. A p-value (p≤0.05) indicates a statistically significant reduction in Relative Tumor Growth of Treated Group, compared to Placebo Control. A compound is considered to be active if the %T/C is found to be <60% and a p-value of less than or equal to 0.05 is achieved.

Data set [5] has as its system VEGF 165-induced vascular permeability. Briefly: Inhibition of Vascular Permeability Assay (Miles Assay). It is filed as in vivo, BALB/c female mice. Conditions: 100 mg/kg, PO. How it is done:
Inhibition of Vascular Permeability Assay (Miles Assay) This assay was performed using BALB/c female mice (Charles River, Wilmington, Mass.). Both sides of the animals were shaved between 24 and 48 hours before the start of the assay. There were 10 animals per experimental group. […] One half hour later the animals were sacrificed by CO2 inhalation. […] Data was statistically analyzed via Student-t-test. A p-value (p≤0.05) indicates a statistically significant difference between the area of vascular permeability of the vehicle control verses the experimental group. Data was statistically analyzed via Student-t-test of Log Relative Area of Permiability. A p-value (p≤0.05) indicates a statistically significant reduction in permeability of Treated Group, compared to Placebo Control.

The target in data set [6] is KDR. Briefly: Inhibition of Binding of VEGF 165 to KDR Receptor as Measured by SPA Assay. Conditions: read-out: affinity constant for VEGF binding to the soluble KDR-Fc receptor.
Target sequence in this assay (P35968 20-327 limits assumed): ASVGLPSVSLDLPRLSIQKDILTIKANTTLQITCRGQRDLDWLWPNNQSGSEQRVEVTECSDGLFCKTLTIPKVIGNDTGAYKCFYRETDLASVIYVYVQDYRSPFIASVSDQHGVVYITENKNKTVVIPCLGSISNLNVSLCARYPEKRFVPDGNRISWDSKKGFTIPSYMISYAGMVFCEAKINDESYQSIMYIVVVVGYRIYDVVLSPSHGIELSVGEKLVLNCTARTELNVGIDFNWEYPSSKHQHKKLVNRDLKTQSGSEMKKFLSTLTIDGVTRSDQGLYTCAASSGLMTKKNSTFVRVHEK
Method: as §1, §2, §3, §4, §5
Preparation of SPA beads:
as §6, §7
(a) Pipette 50 μl of SPA beads to well.
as §8, §9, §10, §11, §12, §13, §14, §15, §16, §17, §18

Where a name gives a salt, the structure may show the parent alone. Read-outs that look alike come from different tables or passages of the source.

As a reminder, the IC50 is the concentration that gives 50% inhibition. With `O=C(Nc1cc2sc3cc(NC(=O)c4cc5c(s4)-c4cc(Cl)ccc4SC5)c(C(=O)O)cc3c2cc1C(=O)O)c1cc2c(s1)-c1cc(Cl)ccc1SC2` [Example 6, 3,7-Bis[(8-chloro-4H-thieno[3,2-c][1]benzothiopyran-2-carbonyl)-amino]dibenzothio-phene-2,8-dicarboxylic acid, disodium], in data set [1] (day 15), the “% T/C (Day)” value stood at 52%. Moreover, it took 0.5 µg/mL to reach half-maximal inhibition in data set [2] (IC50).
For `CCOP(=O)(O)c1cc2c(cc1NC(=O)/C=C/c1ccc(OC)cc1)S(=O)(=O)c1cc(NC(=O)/C=C/c3ccc(OC)cc3)c(P(=O)(O)OCC)cc1-2` [Example 20, [3,7-Bis-[4-methoxyphenyl]-acryloylamino]-8-(ethoxyhydroxy-phosphoryl)-5,5-dioxo-5H-5^6-dibenzothiophen-2-yl]-phosphonic acid monoethyl ester, disodium salt], in data set [1] (day 29), the “% T/C (Day)” value is on record as 39%. The same compound had an IC50 in data set [2] of 3.9 µg/mL. Moreover, the “Inhibition of Corneal Neovascularization” value in data set [3] (Day 4) is listed as 29%; in data set [3] (Day 8), 25%; in data set [3] (Day 11), 30%; in data set [3] (Day 13) it was 26%. The “S/T (No. Survivors/No. Treated)” value in data set [4] (100 mg/kg, PO, Day +28 post tumor staging) is on record as 5/5.
For the compound `CCOP(=O)(O)c1cc2c(cc1NC(=O)c1cc3ccccc3s1)S(=O)(=O)c1cc(NC(=O)c3cc4ccccc4s3)c(P(=O)(O)OCC)cc1-2` [Example 23a, [3,7-Bis[(benzo[b]thiophene-2-carbonyl)amino-8-(ethoxyhydroxyphosphoryl)-5,5-dioxo-5H-5λ^6-dibenzothiophen-2-yl]phosphonic acid monoethyl ester, disodium salt], half-maximal inhibition in data set [2] (IC50) required 1.65 µg/mL. Besides, the “Inhibition of Corneal Neovascularization” value in data set [3] (Day 4) was 70%; in data set [3] (Day 8), 55%; in data set [3] (Day 11), 46%; in data set [3] (Day 13), 50%.
Turning to `COc1ccc(/C=C/C(=O)Nc2cc3c(cc2S(=O)(=O)O)-c2cc(S(=O)(=O)O)c(NC(=O)/C=C/c4ccc(OC)c(OC)c4Cl)cc2S3(=O)=O)c(Cl)c1OC` [Example 27, 3,7-Bis[3-(2-chloro-3,4-di-methoxyphenyl)-acryloylamino]-5,5-dioxo-5H-5^6-dibenzothiophene-2,8-disulfonic acid, disodium salt], in data set [5] (4 hr prior to VEGF), the “% Control” value is 73% and the “Lesion Area (measured area of vascular permeability)” value (from here on “Lesion Area”) is 58.5 mm^2. Also, the IC50 in data set [2] turned out to be 2.33 µg/mL. In addition, in data set [4] (50 mg/kg, PO, day 28), the “% T/C (Day)” value turned out to be 51%. In addition, in data set [4] (100 mg/kg, PO, day 28), the “% T/C (Day)” value amounted to 30%.
As for `COc1ccc(/C=C/C(=O)Nc2cc3c(cc2S(=O)(=O)O)-c2cc(S(=O)(=O)O)c(NC(=O)/C=C/c4ccc(OC)cc4)cc2S3(=O)=O)cc1` [Example 30, 3,7-Bis-[3-(4-methoxyphenyl)-acryloylamino]-5,5-dioxo-5H-5^6-dibenzothiophene-2,8-disulfonic acid, disodium salt], in data set [5] (4 hr prior to VEGF), the “% Control” value is reported as 56% and the “Lesion Area” value is listed as 52.9 mm^2. The compound also returned an IC50 in data set [2] of 0.5 µg/mL. In addition, the “% T/C (Day)” value in data set [4] (50 mg/kg, PO, day 28) was determined as 58%. Moreover, the “% T/C (Day)” value in data set [4] (100 mg/kg, PO, day 42) was found to be 56%.
Consider `CCCc1c(C(=O)Nc2cc3c(cc2S(=O)(=O)O)-c2cc(S(=O)(=O)O)c(NC(=O)c4cnn(-c5ccc(Cl)cc5)c4CCC)cc2S3(=O)=O)cnn1-c1ccc(Cl)cc1` [Example 45, 3,7-Bis-{[1-(4-chlorophenyl)-5-propyl-1H-pyrazole-4-carbonyl]amino}5,5-dioxo-5H-5^6-dibenzothiophene-2,8-disulfonic acid, disodium salt], for which, in data set [2], 2 µg/mL corresponded to half-maximal inhibition (IC50). Moreover, the “% T/C (Day)” value in data set [4] (50 mg/kg, IP, day 28) was determined as 50%.
As for `O=C(Nc1cc2c(cc1S(=O)(=O)O)-c1cc(S(=O)(=O)O)c(NC(=O)c3ccc4cc5ccccc5cc4c3)cc1S2(=O)=O)c1ccc2cc3ccccc3cc2c1` [Example 54, 3,7-Bis-(anthracen-2-ylcarbonylamino)-5,5-dioxo-5H-5^6-dibenzothiophene-2,8-disulfonic acid, disodium salt], the IC50 in data set [2] amounted to 0.15 µg/mL. Moreover, the “% T/C (Day)” value in data set [4] (50 mg/kg, IP, day 28) stood at 46%; in data set [4] (50 mg/kg, PO, day 28) it was 38%.
Consider `O=C(Nc1cc2c(cc1S(=O)(=O)O)-c1cc(S(=O)(=O)O)c(NC(=O)c3ccc4c(c3)C(=O)c3ccccc3C4=O)cc1S2(=O)=O)c1ccc2c(c1)C(=O)c1ccccc1C2=O` [Example 55, 3,7-Bis-[9,10-dihydro-9,10-dioxoanthracen-2-yl)carbonyl-amino]-5,5-dioxo-5H-5^6-dibenzothiophene-2,8-disulfonic acid, disodium salt], for which, in data set [5] (1 hr prior to VEGF), the “% Control” value came out at 77% and the “Lesion Area” value is 71.6 mm^2. In data set [5] (4 hr prior to VEGF), the “% Control” value is 74% and the “Lesion Area” value is listed as 70.5 mm^2. The IC50 in data set [2] stood at 1 µg/mL. Moreover, in data set [4] (50 mg/kg, PO, day 28), the “% T/C (Day)” value was 44%.
VEGF: the Kd in data set [6] was around 0.1 nM.

(Values after US6022307A, “Substituted dibenzothiophenes having antiangiogenic activity” (American Cyanamid Company, priority 1999, dated 2000).)
